Tests used:
[1] = test system: human monocytic cell line THP-1; assay: IL-6 production inhibitory effect of BAFF in IFNγ-precultured THP-1 cells (Example 2); assay type: cell-based; conditions: for relative amount of IL-6 production: 30 μM, control (BAFF only) = 100%
Experimental: In 24-well plates (manufactured by Corning Inc.) in a RPMI-1640 culture medium (produced by ATCC) containing 10% fetal bovine serum (produced by JRH Biosciences), 5×10^5 cells of human monocytic leukemia cell line THP-1 (obtained from a bioresource bank, Japanese Collection of Research Bioresource) were seeded per well. IFNγ (interferon γ, produced by BD Pharmingen) was added to a final concentration of 200 ng/mL and cultured in a 5% CO2 environment at 37° C. After four days of culture, the culture broth in each well was removed and the cells were washed twice with the culture medium, followed by addition of the culture medium containing a final concentration of 2 μg/mL of recombinant human soluble BAFF (produced by Chemicon), and respective test compounds were added to a final concentration of 20 μM or 2 μM to continue the culture in the same conditions. After three days of culture, the culture supernatant was collected to determine the IL-6 content in the supernatant by ELISA. For ELISA, mouse anti-human IL-6 antibody (produced by BD Pharmingen), biotin-labeled anti-human IL-6 antibody (produced by BD Pharmingen), and HRP-labeled streptavidin (produced by BD Pharmingen) were used. The test compound groups were used by purchasing from Asinex. In the test system, Compound 27 (BIK-13) in PTL 1 was used as a positive control (compound with inhibitory action on IL-6 production by monocytic cells). BIK-13 was the same as the compound of ADM 12880656 by Asinex Japan Inc.
In the presence of 200 ng/mL recombinant human IFNγ (same as Example 1) (entire culture scale of 24-well culture plates at 2 mL/well), 5×10^5 cells of human monocytic cell line THP-1 (same as Example 1) were cultured using a 10% FBS/RPMI 1640 culture medium in a 5% CO2 environment at 37° C. for four days (96 hours). Four days later, an operation of removing the supernatant, adding a new medium, leaving it still in an incubator, and removing the supernatant was repeated twice. After removing the supernatant, recombinant human BAFF (2 μg/mL) was dissolved together with Compound A (ADM 12880492, Asinex Japan Inc.) or Compound B (ADM 12880696, Asinex Japan Inc.) in a medium and added to the culture wells to be cultured for three days. Three days later, the culture supernatant was collected to determine the IL-6 content in the culture supernatant by IL-6 specific ELISA. As a control, instead of Compound A or Compound B, BIK-13 was used.

[2] = test system: peripheral blood mononuclear cells (PBMC); assay: IgG production by B cell-stimulation culture using peripheral blood mononuclear cells (Example 5); assay type: cell-based, human; conditions: 7 days (results not shown)
Experimental: Peripheral blood mononuclear cells were isolated from normal healthy human peripheral blood by density gradient centrifugation using Ficoll. In the presence of 5 μg/mL anti-human IgM antibody, 1 μg/mL anti-human CD40 antibody, 30 ng/mL recombinant human IL-21, 30 ng/mL recombinant human BAFF, and Compound A (0.4 μM, 2 μM, and 10 μM), 2×10^5 peripheral blood mononuclear cells were cultured using a 10% FBS/RPMI 1640 culture medium in a 5% CO2 environment at 37° C. for seven days. The cells were cultured in 96-well round-bottom culture plates in a scale of 200 μL per well. Seven days later, the supernatant was removed and the culture supernatant was collected to determine the IgG content in the culture supernatant by ELISA. As controls, experiments in the case of not adding Compound A and the case of adding neither Compound A nor BAFF were also performed. Moreover, for comparison with the effects of Compound A, experiments using BIK-13 instead of Compound A were also performed.

[3] = test system: human peripheral blood monocytes; assay: IL-6 production inhibitory effect of BAFF from human peripheral blood monocytes (Example 3); assay type: cell-based; conditions: for IL-6 production inhibitory effect compared with the control: 4 days
Experimental: Monocytes were isolated from normal healthy human peripheral blood using CD14-microbeads. In the presence of 2 μg/mL recombinant human BAFF (same as Example 2) and Compound A (2 μM and 10 μM) (entire culture scale of 24-well culture plates at 2 mL/well), 5×10^5 of the isolated monocytes were cultured using a 10% FBS/RPMI 1640 culture medium in a 5% CO2 environment at 37° C. for four days. Four days later, the supernatant was removed to determine the IL-6 content in the culture supernatant by IL-6 specific ELISA. For comparison, experiments using BIK-13 instead of Compound A were also performed.

[4] = test system: peripheral blood monocytes and B cells from Sjögren syndrome patients; assay: IgG production in coculture of BAFF-stimulated peripheral blood monocytes and B cells (Example 4); assay type: cell-based, human; conditions: for IL-6 production inhibitory effect compared with the control: 4 days
Experimental: Monocytes were isolated from Sjögren syndrome patient peripheral blood using CD14 microbeads, and B cells were isolated from the peripheral blood using CD19 microbeads. Using Transwell® culture plates, 2×10^5 monocytes per well were seeded in the upper plate and 1×10^5 B cells in the lower plate to be cultured in the presence of 2 μg/mL recombinant human BAFF (same as Example 2) and Compound A (1 μM and 10 μM) using a 10% FBS/RPMI 1640 culture medium in a 5% CO2 environment at 37° C. for four days (coculture of the peripheral blood monocytes and the B cells via a membrane). Four days later, the supernatant was removed and the culture supernatant was collected to determine the IgG content in the culture supernatant by ELISA. As controls, experiments in the case of not adding Compound A and the case of adding neither Compound A nor BAFF were also performed. Moreover, for comparison with the effects of Compound A, experiments using BIK-13 instead of Compound A were also performed.

| Compound | IL-6 production inhibitory effect compared with adding no compound ([1]; 1.2 μM with 2 μg/mL human BAFF, 3 days) | IL-6 production inhibitory effect compared with adding no compound ([1]; 6 μM and 30 μM with 2 μg/mL human BAFF, 3 days) | relative amount of IL-6 production [1] | IL-6 production inhibitory effect compared with the control ([2]; 0.4 μM and 2 μM) | IL-6 production inhibitory effect compared with the control ([2]; 10 μM) | IL-6 production inhibitory effect compared with the control ([3]; 2 μM with 2 μg/mL human BAFF) | IL-6 production inhibitory effect compared with the control ([3]; 10 μM with 2 μg/mL human BAFF) | relative amount of IL-6 production ([3]; 10 μM, control = 100%) | IL-6 production inhibitory effect compared with the control ([4]; 1 μM with 2 μg/mL human BAFF) | IL-6 production inhibitory effect compared with the control ([4]; 10 μM with 2 μg/mL human BAFF) | cancellation of the IgG antibody production enhancement by BAFF ([4]; 10 μM, compared with adding neither compound nor BAFF) | IL-6 production inhibitory effect compared with the control ([1]; 0.04 μM, 0.2 μM and 1 μM together with 2 μg/mL human BAFF, 3 days, ELISA) | IL-6 production inhibitory effect compared with BIK-13 ([1]; THP-1 system of Example 2) |
| --- | --- | --- | --- | --- | --- | --- | --- | --- | --- | --- | --- | --- | --- |
| Cc1c(C)n(C2CCCC2)c2ncnc(OC3CCN(C(=O)CN4CCCC4=O)CC3)c12 [BIK-13, reference compound] | no significant difference | significant (p<0.001) IL-6 production inhibitory effects | 52.8±2.2% | no significant difference | significant (p<0.01) IL-6 production inhibitory effect | no significant difference | significant (p<0.05) IL-6 production inhibitory effect | 80.2±14.5% | no significant difference | significant (p<0.01) IL-6 production inhibitory effect | not completely cancelled | – | – |
| Cc1c(C)n(C2CCCC2)c2ncnc(OC3CCN(CCC#N)CC3)c12 [Compound B, 3-[4-{(7-cyclopentyl-5,6-dimethyl-7H-pyrrolo[2,3-d]pyrimidin-4-yl)oxy}piperidin-1-yl]propanenitrile] | – | – | below 50% | – | – | – | – | – | – | – | – | significant (p<0.001) IL-6 production inhibitory effects | stronger IL-6 production inhibitory effect than BIK-13 |
